According to PMC9948168, “Vanillin-Based Indolin-2-one Derivative Bearing a Pyridyl Moiety as a Promising Anti-Breast Cancer Agent via Anti-Estrogenic Activity” (ACS Omega, 2023):

Legend:
Assay in all cases: NCI-60 one-dose screening
Assay type in all cases: cell-based
[1] = system: 786-0; settings: Homo sapiens, 786-0, Renal Cancer, read-out: GI (%)
[2] = system: DU-145; settings: Homo sapiens, DU-145, Prostate Cancer, read-out: GI (%)
[3] = system: EKVX; settings: Homo sapiens, Non-Small Cell Lung Cancer, read-out: GI (%)
[4] = system: HCC-2998; settings: Homo sapiens, HCC-2998, Colon Cancer, read-out: GI (%)
[5] = system: HCT-116; settings: Homo sapiens, HCT-116, Colon Cancer, read-out: GI (%)
[6] = system: HOP-62; settings: Homo sapiens, HOP-62, Non-Small Cell Lung Cancer, read-out: GI (%)
[7] = system: HOP-92; settings: Homo sapiens, HOP-92, Non-Small Cell Lung Cancer, read-out: GI (%)
[8] = system: HS 578T; settings: Homo sapiens, Breast Cancer, read-out: GI (%)
[9] = system: HT29; settings: Homo sapiens, HT-29, HT29, Colon Cancer, read-out: GI (%)
[10] = system: IGROV1; settings: Homo sapiens, IGROV-1, IGROV1, Ovarian Cancer, read-out: GI (%)
[11] = system: KM12; settings: Homo sapiens, KM12, Colon Cancer, read-out: GI (%)
[12] = system: LOX IMVI; settings: Homo sapiens, Melanoma, read-out: GI (%)
[13] = system: MALME-3M; settings: Homo sapiens, Melanoma, read-out: GI (%)
[14] = system: MDA-MB-231/ATCC; settings: Homo sapiens, Breast Cancer, read-out: GI (%)
[15] = system: MDA-MB-468; settings: Homo sapiens, MDA-MB-468, Breast Cancer, read-out: GI (%)
[16] = system: NCI-H23; settings: Homo sapiens, NCI-H23, Non-Small Cell Lung Cancer, read-out: GI (%)
[17] = system: NCI-H460; settings: Homo sapiens, NCI-H460, Non-Small Cell Lung Cancer, read-out: GI (%)
[18] = system: NCI-H522; settings: Homo sapiens, NCI-H522, Non-Small Cell Lung Cancer, read-out: GI (%)
[19] = system: NCI/ADR-RES; settings: Homo sapiens, Ovarian Cancer, read-out: GI (%)
[20] = system: OVCAR-3; settings: Homo sapiens, OVCAR-3, 10 μM; OVCAR-3, Ovarian Cancer; read-out: GI (%)
[21] = system: OVCAR-8; settings: Homo sapiens, OVCAR-8, Ovarian Cancer, read-out: GI (%)
[22] = system: PC-3; settings: Homo sapiens, PC-3, Prostate Cancer, read-out: GI (%)
[23] = system: RPMI-8226; settings: Homo sapiens, RPMI-8226, Leukemias, read-out: GI (%)
[24] = system: SF-268; settings: Homo sapiens, SF-268, CNS Cancer, read-out: GI (%)
[25] = system: SF-295; settings: Homo sapiens, SF-295, CNS Cancer, read-out: GI (%)
[26] = system: SF-539; settings: Homo sapiens, SF-539, CNS Cancer, read-out: GI (%)
[27] = system: SK-MEL-28; settings: Homo sapiens, SK-MEL-28, Melanoma, read-out: GI (%)
[28] = system: SK-MEL-5; settings: Homo sapiens, SK-MEL-5, Melanoma, read-out: GI (%)
[29] = system: SN12C; settings: Homo sapiens, Renal Cancer, read-out: GI (%)
[30] = system: SNB-75; settings: Homo sapiens, SNB-75, CNS Cancer, read-out: GI (%)
[31] = system: SR; settings: Homo sapiens, Leukemias, read-out: GI (%)
[32] = system: T-47D; settings: Homo sapiens, T47D, Breast Cancer, read-out: GI (%)
[33] = system: U251; settings: Homo sapiens, U-251, U251, CNS Cancer, read-out: GI (%)
[34] = system: UACC-62; settings: Homo sapiens, UACC-62, Melanoma, read-out: GI (%)
[35] = system: UO-31; settings: Homo sapiens, UO-31, Renal Cancer, read-out: GI (%)

| SMILES | inhibition at 10 µM [1] [%] | inhibition at 10 µM [2] [%] | inhibition at 10 µM [3] [%] | inhibition at 10 µM [4] [%] | inhibition at 10 µM [5] [%] | inhibition at 10 µM [6] [%] | inhibition at 10 µM [7] [%] | inhibition at 10 µM [8] [%] | inhibition at 10 µM [9] [%] | inhibition at 10 µM [10] [%] | inhibition at 10 µM [11] [%] | inhibition at 10 µM [12] [%] | inhibition at 10 µM [13] [%] | inhibition at 10 µM [14] [%] | inhibition at 10 µM [15] [%] | inhibition at 10 µM [16] [%] | inhibition at 10 µM [17] [%] | inhibition at 10 µM [18] [%] | inhibition at 10 µM [19] [%] | inhibition at 10 µM [20] [%] | also measured |
| --- | --- | --- | --- | --- | --- | --- | --- | --- | --- | --- | --- | --- | --- | --- | --- | --- | --- | --- | --- | --- | --- |
| COc1cc(/C=C2/C(=O)Nc3cc(Cl)ccc32)ccc1OCc1ccc(F)cc1 [6m] | -7.88 | -4.25 | 23.5 | 3.17 | 7.12 | 4.08 | 10.8 | 8.25 | -5.1 | 27.3 | -2.27 | 6.49 | 7.28 | 7.87 | 7.02 | -0.55 | 1.02 | 7.08 | -0.91 | -1.69 | inhibition at 10 µM [21]: 1.34%; inhibition at 10 µM [22]: 13%; inhibition at 10 µM [23]: -13.2%; inhibition at 10 µM [24]: -0.8%; inhibition at 10 µM [25]: 2.87%; inhibition at 10 µM [26]: 4.99%; inhibition at 10 µM [27]: -5.13%; inhibition at 10 µM [28]: 1.04%; inhibition at 10 µM [29]: 4.13%; inhibition at 10 µM [30]: -4.47%; inhibition at 10 µM [31]: 2.45%; inhibition at 10 µM [32]: 5.94%; inhibition at 10 µM [33]: -10.6%; inhibition at 10 µM [34]: 11.2%; inhibition at 10 µM [35]: 20.2% |
| COc1ccc(COc2ccc(/C=C3/C(=O)Nc4cc(Cl)ccc43)cc2OC)cc1 [6n] | -6.9 | 3.17 | 13.1 | -22.2 | 11.1 | 4.49 | -8.09 | 0.21 | -0.76 | 20.1 | 0.42 | -2.89 | 2.77 | 5.7 | 7.72 | 2.17 | 20.7 | 11.5 | 0.37 | -5.39 | inhibition at 10 µM [21]: 1.31%; inhibition at 10 µM [22]: 7.65%; inhibition at 10 µM [23]: 9.52%; inhibition at 10 µM [24]: 0.26%; inhibition at 10 µM [25]: -2.14%; inhibition at 10 µM [26]: 9.72%; inhibition at 10 µM [27]: -2.94%; inhibition at 10 µM [28]: 3.06%; inhibition at 10 µM [29]: 4.32%; inhibition at 10 µM [30]: -12.8%; inhibition at 10 µM [31]: 0.64%; inhibition at 10 µM [32]: 12.8%; inhibition at 10 µM [33]: -6.11%; inhibition at 10 µM [34]: 12.2%; inhibition at 10 µM [35]: 18.6% |
| COc1cc(/C=C2/C(=O)Nc3cc(Cl)ccc32)ccc1OCc1ccccn1 [6o] | -11.2 | -7.21 | 25.3 | -11.7 | 2.05 | 3.58 | -5.39 | -1.2 | -15.4 | 25.2 | 2.85 | 2.38 | 4.92 | 13.4 | -3.25 | 4.55 | -3.23 | -1.8 | -7.14 | -15.5 | inhibition at 10 µM [21]: -2.7%; inhibition at 10 µM [22]: 2.25%; inhibition at 10 µM [23]: -0.91%; inhibition at 10 µM [24]: -6.37%; inhibition at 10 µM [25]: -1.12%; inhibition at 10 µM [26]: 4.76%; inhibition at 10 µM [27]: -7.43%; inhibition at 10 µM [28]: 1.29%; inhibition at 10 µM [29]: -4.12%; inhibition at 10 µM [30]: -0.58%; inhibition at 10 µM [31]: 6.43%; inhibition at 10 µM [32]: 0.18%; inhibition at 10 µM [33]: -7.72%; inhibition at 10 µM [34]: 6.45%; inhibition at 10 µM [35]: 16.6% |
